# Measured values reported in US20260262643A1, “HERBICIDAL BENZOXAZINES” (FMC CORPORATION, priority 2022, published 2026).
# Legend:
# [1] = tested on: galium; assay: Test C postemergence; type: in vivo, Galium aparine; settings: 10 days
# How it was run: (§1)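 Visual injury score, 0–100 (100 = complete control), taken 10 days after treatment relative to untreated controls. Pre: directed spray onto soil over sown seeds. Post: foliar spray at one- to two-leaf stage, 2–10 cm. Solvent/surfactant formulation; loam–sand soil; greenhouse.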
# [2] = tested on: horseweed; assay: Test C postemergence; type: in vivo, Erigeron canadensis; settings: 10 days
# How it was run: as §1
# [3] = tested on: blackgrass; assay: Test C preemergence; type: in vivo, Alopecurus myosuroides; settings: for Blackgrass plant response rating: preemergence; for Plant response rating, Blackgrass: Preemergence
# How it was run: as §1
# [4] = tested on: green foxtail; assay: Test C postemergence; type: in vivo, Setaria viridis; settings: 10 days
# How it was run: as §1
# [5] = tested on: soybean; assay: Test C preemergence; type: in vivo, Glycine max; settings: for Soybean plant response rating: preemergence; for Plant response rating, Soybean: Preemergence
# How it was run: as §1
# [6] = tested on: soybean; assay: Test C postemergence; type: in vivo, Glycine max; settings: 10 days
# How it was run: as §1
# [7] = tested on: ryegrass, Italian; assay: Test C postemergence; type: in vivo, Lolium multiflorum; settings: 10 days
# How it was run: as §1
# [8] = tested on: rice; assay: Test D flooded paddy test; type: in vivo, Oryza sativa; settings: 250 g ai/ha, applied to paddy water, visual rating after 13 to 14 days, scale 0 to 100 (0 no effect, 100 complete control)
# How it was run: (§2)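 Visual ratings from 0, meaning no effect, to 100, meaning complete control, were assigned against untreated controls 13 to 14 days after compounds were added to the floodwater of pots kept 3 cm deep, with plants at the 2-leaf stage.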
# [9] = tested on: corn; assay: Test C preemergence; type: in vivo, Zea mays; settings: for Corn plant response rating: preemergence; for Plant response rating, Corn: Preemergence
# How it was run: as §1
# [10] = tested on: barnyardgrass; assay: Test D flooded paddy test; type: in vivo, Echinochloa crus-galli; settings: 250 g ai/ha, applied to paddy water, visual rating after 13 to 14 days, scale 0 to 100 (0 no effect, 100 complete control)
# How it was run: as §2
# [11] = tested on: corn; assay: Test C postemergence; type: in vivo, Zea mays; settings: 10 days
# How it was run: as §1
# [12] = tested on: ragweed; assay: Test C postemergence; type: in vivo, Ambrosia artemisiifolia; settings: 10 days
# How it was run: as §1
# [13] = tested on: oat, wild; assay: Test C preemergence; type: in vivo, Avena fatua; settings: for Oat, Wild plant response rating: preemergence; for Plant response rating, Oat, Wild: Preemergence
# How it was run: as §1
# [14] = tested on: ragweed; assay: Test C preemergence; type: in vivo, Ambrosia artemisiifolia; settings: for Ragweed plant response rating: preemergence; for Plant response rating, Ragweed: Preemergence
# How it was run: as §1
# [15] = tested on: pigweed, palmer; assay: Test C postemergence; type: in vivo, Amaranthus palmeri; settings: 10 days
# How it was run: as §1
# [16] = tested on: ducksalad; assay: Test D flooded paddy test; type: in vivo, Heteranthera limosa; settings: 250 g ai/ha, applied to paddy water, visual rating after 13 to 14 days, scale 0 to 100 (0 no effect, 100 complete control)
# How it was run: as §2
# [17] = tested on: oat, wild; assay: Test C postemergence; type: in vivo, Avena fatua; settings: 10 days
# How it was run: as §1
# [18] = tested on: blackgrass; assay: Test C postemergence; type: in vivo, Alopecurus myosuroides; settings: 10 days
# How it was run: as §1
# [19] = tested on: kochia; assay: Test C postemergence; type: in vivo, Bassia scoparia; settings: 10 days
# How it was run: as §1
# [20] = tested on: kochia; assay: Test C preemergence; type: in vivo, Bassia scoparia; settings: for Kochia plant response rating: preemergence; for Plant response rating, Kochia: Preemergence
# How it was run: as §1
# [21] = tested on: barnyardgrass; assay: Test C postemergence; type: in vivo, Echinochloa crusgalli; settings: 10 days
# How it was run: as §1
# [22] = tested on: barnyardgrass; assay: Test C preemergence; type: in vivo, Echinochloa crusgalli; settings: for Barnyardgrass plant response rating: preemergence; for Plant response rating, Barnyardgrass: Preemergence
# How it was run: as §1
# [23] = tested on: pigweed, palmer; assay: Test C preemergence; type: in vivo, Amaranthus palmeri; settings: for Pigweed, Palmer plant response rating: preemergence; for Plant response rating, Pigweed, Palmer: Preemergence
# How it was run: as §1
# [24] = tested on: sedge, umbrella; assay: Test D flooded paddy test; type: in vivo, Cyperus difformis; settings: 250 g ai/ha, applied to paddy water, visual rating after 13 to 14 days, scale 0 to 100 (0 no effect, 100 complete control)
# How it was run: as §2
# [25] = tested on: wheat; assay: Test C preemergence; type: in vivo, Triticum aestivum; settings: for Wheat plant response rating: preemergence; for Plant response rating, Wheat: Preemergence
# How it was run: as §1
# [26] = tested on: ryegrass, Italian; assay: Test C preemergence; type: in vivo, Lolium multiflorum; settings: for Ryegrass, Italian plant response rating: preemergence; for Plant response rating, Ryegrass, Italian: Preemergence
# How it was run: as §1
# [27] = tested on: green foxtail; assay: Test C preemergence; type: in vivo, Setaria viridis; settings: for Foxtail, Green plant response rating: preemergence; for Plant response rating, Foxtail, Green: Preemergence
# How it was run: as §1
# [28] = tested on: wheat; assay: Test C postemergence; type: in vivo, Triticum aestivum; settings: 10 days
# How it was run: as §1
# [29] = 500 g ai/ha, postemergence, 0 to 100 scale (0 no effect, 100 complete control)
# [30] = Postemergence, 125 g ai/ha, 0 to 100 scale (0 no effect, 100 complete control)
# [31] = 500 g ai/ha, 0 to 100 scale (0 no effect, 100 complete control)
# [32] = 125 g ai/ha, 0 to 100 scale, 0 no effect, 100 complete control
# [33] = 125 g ai/ha, postemergence, 0 to 100 scale, 0 no effect, 100 complete control
# [34] = Postemergence, 500 g ai/ha, visual 0 to 100 scale (0 no effect, 100 complete control)
# [35] = 500 g ai/ha, visual rating after 10 days, 0 to 100 scale (0 no effect, 100 complete control)
# [36] = Test C, 125 g ai/ha, 0 to 100 scale (0 no effect, 100 complete control)
smiles,measurement,setting,value
CCOC(=O)c1ncn(-c2ccc(C)c(C(=O)N3C[C@H](C)Oc4c(Cl)cccc43)c2)n1 [Compound 342],"Plant response rating, Galium",[1]; [29],80
same,"Plant response rating, Galium",[1]; [30],70
same,"Plant response rating, Horseweed",[2]; [29],50
same,"Plant response rating, Horseweed",[2]; [30],10
same,Blackgrass plant response rating,[3]; [31],50
same,"Plant response rating, Blackgrass",[3]; [32],20
same,"Plant response rating, Foxtail, Green",[4]; [29],90
same,"Plant response rating, Foxtail, Green",[4]; [30],80
same,Soybean plant response rating,[5]; [31],10
same,"Plant response rating, Soybean",[5]; [32],10
same,"Plant response rating, Soybean",[6]; [29],90
same,"Plant response rating, Soybean",[6]; [30],100
same,"Plant response rating, Ryegrass, Italian",[7]; [29],70
same,"Plant response rating, Ryegrass, Italian",[7]; [30],70
same,"Plant response rating, Rice (Flood)",[8],15
same,Corn plant response rating,[9]; [31],20
same,"Plant response rating, Corn",[9]; [32],0
same,"Plant response rating, Barnyardgrass (Flood)",[10],0
same,"Plant response rating, Corn",[11]; [29],70
same,"Plant response rating, Corn",[11]; [30],70
same,"Plant response rating, Ragweed",[12]; [29],80
same,"Plant response rating, Ragweed",[12]; [30],50
same,"Oat, Wild plant response rating",[13]; [31],80
same,"Plant response rating, Oat, Wild",[13]; [32],20
same,Ragweed plant response rating,[14]; [31],20
same,"Plant response rating, Ragweed",[14]; [32],0
same,"Plant response rating, Pigweed, Palmer",[15]; [29],100
same,"Plant response rating, Pigweed, Palmer",[15]; [30],90
same,"Plant response rating, Ducksalad (Flood)",[16],10
same,"Plant response rating, Oat, Wild",[17]; [29],80
same,"Plant response rating, Oat, Wild",[17]; [30],70
same,"Plant response rating, Blackgrass",[18]; [29],80
same,"Plant response rating, Blackgrass",[18]; [30],60
same,"Plant response rating, Kochia",[19]; [29],60
same,"Plant response rating, Kochia",[19]; [30],40
same,Kochia plant response rating,[20]; [31],0
same,"Plant response rating, Kochia",[20]; [32],0
same,"Plant response rating, Barnyardgrass",[21]; [29],70
same,"Plant response rating, Barnyardgrass",[21]; [30],60
same,Barnyardgrass plant response rating,[22]; [31],60
same,"Plant response rating, Barnyardgrass",[22]; [32],20
same,"Pigweed, Palmer plant response rating",[23]; [31],70
same,"Plant response rating, Pigweed, Palmer",[23]; [32],30
same,"Plant response rating, Sedge, Umbrella (Flood)",[24],15
same,Wheat plant response rating,[25]; [31],30
same,"Plant response rating, Wheat",[25]; [32],0
same,"Ryegrass, Italian plant response rating",[26]; [31],80
same,"Plant response rating, Ryegrass, Italian",[26]; [32],70
same,"Foxtail, Green plant response rating",[27]; [31],90
same,"Plant response rating, Foxtail, Green",[27]; [32],40
same,"Plant response rating, Wheat",[28]; [29],80
same,"Plant response rating, Wheat",[28]; [30],70
C[C@H]1CN(C(=O)c2cc(-n3cnc(C4CC4)n3)cc3c2OCCO3)c2cccc(Cl)c2O1 [Compound 156],"Plant response rating, Galium",[1]; [33],100
same,"Plant response rating, Galium",[1]; [34],100
same,"Plant response rating, Horseweed",[2]; [33],50
same,"Plant response rating, Horseweed",[2]; [34],60
same,"Plant response rating, Blackgrass",[3]; [35],90
same,Blackgrass plant response rating,[3]; [36],50
same,"Plant response rating, Foxtail, Green",[4]; [33],90
same,"Plant response rating, Foxtail, Green",[4]; [34],90
same,"Plant response rating, Soybean",[5]; [35],100
same,Soybean plant response rating,[5]; [36],80
same,"Plant response rating, Soybean",[6]; [33],100
same,"Plant response rating, Soybean",[6]; [34],100
same,"Plant response rating, Ryegrass, Italian",[7]; [33],50
same,"Plant response rating, Ryegrass, Italian",[7]; [34],90
same,"Plant response rating, Rice (Flood)",[8],25
same,"Plant response rating, Corn",[9]; [35],10
same,Corn plant response rating,[9]; [36],0
same,"Plant response rating, Barnyardgrass (Flood)",[10],40
same,"Plant response rating, Corn",[11]; [33],30
same,"Plant response rating, Corn",[11]; [34],50
same,"Plant response rating, Ragweed",[12]; [33],80
same,"Plant response rating, Ragweed",[12]; [34],100
same,"Plant response rating, Oat, Wild",[13]; [35],40
same,"Oat, Wild plant response rating",[13]; [36],20
same,"Plant response rating, Ragweed",[14]; [35],90
same,Ragweed plant response rating,[14]; [36],70
same,"Plant response rating, Pigweed, Palmer",[15]; [33],80
same,"Plant response rating, Pigweed, Palmer",[15]; [34],100
same,"Plant response rating, Ducksalad (Flood)",[16],65
same,"Plant response rating, Oat, Wild",[17]; [33],20
same,"Plant response rating, Oat, Wild",[17]; [34],30
same,"Plant response rating, Blackgrass",[18]; [33],80
same,"Plant response rating, Blackgrass",[18]; [34],90
same,"Plant response rating, Kochia",[19]; [33],80
same,"Plant response rating, Kochia",[19]; [34],90
same,"Plant response rating, Kochia",[20]; [35],100
same,Kochia plant response rating,[20]; [36],80
same,"Plant response rating, Barnyardgrass",[21]; [33],70
same,"Plant response rating, Barnyardgrass",[21]; [34],90
same,Barnyardgrass plant response rating,"[22]; 125 g ai/ha, 0 to 100 scale (0 no effect, 100 complete control)",70
same,"Plant response rating, Barnyardgrass",[22]; [35],90
same,"Plant response rating, Pigweed, Palmer",[23]; [35],100
same,"Pigweed, Palmer plant response rating",[23]; [36],100
same,"Plant response rating, Sedge, Umbrella (Flood)",[24],95
same,"Plant response rating, Wheat",[25]; [35],30
same,Wheat plant response rating,[25]; [36],10
same,"Plant response rating, Ryegrass, Italian",[26]; [35],90
same,"Ryegrass, Italian plant response rating",[26]; [36],60
same,"Plant response rating, Foxtail, Green",[27]; [35],100
same,"Foxtail, Green plant response rating",[27]; [36],100
same,"Plant response rating, Wheat",[28]; [33],60
same,"Plant response rating, Wheat",[28]; [34],80
